From US20240391954A1, “MC4R AGONIST PEPTIDES” (The Regents of the University of Michigan, priority 2021, published 2024)
Read-outs that look alike come from different tables or passages of the source. Positions of bridges follow the written chain, without caps; N, C: chain ends. Non-standard residues stand in square brackets, D forms with d. Residues, ends and D or L forms follow the SMILES beside them. dBip = N[C@H](Cc1ccc(-c2ccccc2)cc1)C(=O)O; dPhe(4-Br) = N[C@H](Cc1ccc(Br)cc1)C(=O)O; d(αMeF) = C[C@@](N)(Cc1ccccc1)C(=O)O; NMeR = CN[C@@H](CCCNC(=N)N)C(=O)O; hCit = NC(=O)NCCCC[C@H](N)C(=O)O; Tic = O=C(O)[C@@H]1Cc2ccccc2CN1; dTic = O=C(O)[C@H]1Cc2ccccc2CN1; Cit = NC(=O)NCCC[C@H](N)C(=O)O; Nle = CCCC[C@H](N)C(=O)O

How the values were obtained:
human MC4R = target: T1, human MC4R (Homo sapiens, UniProt P32245); assay: split-luciferase cAMP sensor assay, agonist mode (measurement window 1), hMC4R; assay type: cell-based; details: for MC4R cAMP % max activation / EC50 / Emax: agonist mode; for EC50: read-out: MC4R cAMP EC50; for Emax: read-out: MC4R cAMP % max activation
T1 construct: host or cells: HEK-293 cells stably expressing the GScAMP22F split-luciferase cAMP sensor and hMC4R, G418 selection
Description: (§1) The stable cell lines were grown and maintained in selection media consisting of Dulbecco's modified Eagle media (DMEM) with 4.5 g/l D-glucose, and 4 mM L-glutamine (Thermo Fisher Scientific, Waltham, MA), supplemented with 10% fetal bovine serum, 100 units/ml penicillin, 100 μg/ml streptomycin, 2.5 μg/ml amphotericin B, 200 μg/ml hygromycin B (for positive selection of the GScAMP22f luciferase reporter), and Geneticin™ (G418) 700 μg/ml (for MC3R or MC4R selection). Actual serum concentration during the assay is estimated to be about 1%. Cell line identity is routinely verified by qPCR and MC3R-and MC4R-specific oligonucleotides.
(§2) The assay for the determination of the cAMP response in live cells was described previously. […] Cells were seeded at a density of 20,000 cells per well using 384-well poly-D lysine-coated, clear bottom, and black-wall assay plates (Corning Inc. Corning, NJ). Cells were allowed to attach to the plates for 18 to 24 h after which growth media was removed and 20 μl of 4% D-luciferin (Promega) in CO2 independent, serum-free medium (Thermo Fisher Scientific) was added to each well. […] Intracellular cAMP levels were measured using an FDSS 7000EX Functional Drug Screening System (Hamamatsu Photonics, Hamamatsu, Japan) in the Center for Chemical Genomics at the Life Sciences Institute. This instrument allowed the in-line addition of test-peptides and receptor agonists while simultaneously acquiring the luminescence signal from live cells. […] A submaximal forskolin (20 μM) concentration was also included to serve as a normalization reference to account for cell number variations and differences in assay transducer efficiency between cell lines.
(§3) With this set up it was possible to evaluate the direct effect of the test-peptides on the MC3R and MC4R cell lines during measurement window 1, while the antagonist profile in the presence of EC90 α-MSH was determined on measurement window 2. […] EC50 or IC50 potency values were determined by non-linear regression by fitting the data to a sigmoid four-parameter variable slope model using the GraphPad Prism version 8.4 software package (San Diego CA).

human MC3R = target: T2, human MC3R (Homo sapiens, UniProt P41968); assay: split-luciferase cAMP sensor assay, agonist mode (measurement window 1), hMC3R; assay type: cell-based; details: agonist mode; for Emax: read-out: MC3R cAMP % max activation
T2 construct: expressed in transfected cells; host or cells: HEK-293 cells stably expressing the GScAMP22F split-luciferase cAMP sensor (parent reporter line from Promega); MC3R clone generated in-house, G418 selection
Description: as §1, §2, §3

[1] = HEK-293 cells stably expressing hMC4R

T2 sequence (P41968 whole entry): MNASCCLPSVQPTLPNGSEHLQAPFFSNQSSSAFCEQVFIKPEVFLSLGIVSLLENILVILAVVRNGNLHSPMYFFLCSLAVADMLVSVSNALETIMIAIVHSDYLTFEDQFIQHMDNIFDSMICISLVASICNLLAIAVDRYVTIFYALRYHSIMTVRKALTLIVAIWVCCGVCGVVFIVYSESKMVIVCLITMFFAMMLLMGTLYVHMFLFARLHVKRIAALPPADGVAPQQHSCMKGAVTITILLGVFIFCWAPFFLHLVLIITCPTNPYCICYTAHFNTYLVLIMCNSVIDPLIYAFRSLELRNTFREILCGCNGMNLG
T1 sequence (P32245 whole entry): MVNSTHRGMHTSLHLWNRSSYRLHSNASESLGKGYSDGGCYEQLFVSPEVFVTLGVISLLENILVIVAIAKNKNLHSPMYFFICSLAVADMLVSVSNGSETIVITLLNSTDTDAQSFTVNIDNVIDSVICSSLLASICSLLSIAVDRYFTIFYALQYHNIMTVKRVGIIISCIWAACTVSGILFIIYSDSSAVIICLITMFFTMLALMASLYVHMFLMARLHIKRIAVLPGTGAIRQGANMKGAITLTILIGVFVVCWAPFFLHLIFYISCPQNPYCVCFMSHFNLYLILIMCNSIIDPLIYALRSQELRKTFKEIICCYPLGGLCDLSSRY

SMILES	MC4R selectivity vs MC1R (human MC4R)	MC4R selectivity vs MC3R (human MC4R)	Emax (human MC4R; hMC4R stable cell line) [%]	Emax (human MC3R; hMC3R stable cell line) [%]	further results
CC(=O)N[C@@H](CCCNC(=N)N)C(=O)N[C@H]1CSSC[C@@H](C(N)=O)NC(=O)[C@@H](Cc2c[nH]c3ccccc23)NC(=O)[C@H](CCCNC(=N)N)NC(=O)[C@@](C)(Cc2ccccc2)NC(=O)[C@H](CCCNC(=N)N)NC(=O)[C@@H](C)NC1=O [CTX-1240, Arg-cyclo(Cys-D-Ala-Arg-aMe-D-Phe-Arg-D-Trp-Cys)] (Ac-RC[dA]R[d(αMeF)]R[dW]C-NH2; disulfide 2-8)	0.46	0.41	–	–	MC4R cAMP % max activation (human MC4R; hMC4R stable cell line): (81%); MC3R cAMP % max activation (human MC3R; hMC3R stable cell line): (27%)
CCCC[C@H](NC(=O)[C@H](CCCNC(=N)N)NC(C)=O)C(=O)N[C@H]1CSSC[C@@H](C(N)=O)NC(=O)[C@H](Cc2c[nH]c3ccccc23)NC(=O)[C@H](CCCNC(=N)N)NC(=O)[C@@H](Cc2ccc(Br)cc2)NC(=O)[C@H](CCCNC(=N)N)NC1=O [CTX-1230, Arg-Nle-cyclo(Cys-Arg-D-Phe(4-Br)-Arg-Trp-Cys)] (Ac-R[Nle]CR[dPhe(4-Br)]RWC-NH2; disulfide 3-8)	0.18	1.95	–	–	MC4R cAMP % max activation (human MC4R; hMC4R stable cell line): (27%); EC50 (human MC4R; hMC4R stable cell line): 1.4 nM; MC3R cAMP % max activation (human MC3R; hMC3R stable cell line): (23%); EC50 (human MC3R; hMC3R stable cell line, read-out: MC3R cAMP EC50): 3.9 nM
C[C@H]1NC(=O)[C@@H](NC(=O)[C@H](CCCNC(=N)N)NC(=O)COCCOCCNC(=O)COCCOCCNC(=O)CNC(=O)CCc2ccc(I)cc2)CSSC[C@@H](C(N)=O)NC(=O)[C@@H](Cc2c[nH]c3ccccc23)NC(=O)[C@H](CCCNC(=N)N)NC(=O)[C@@H](Cc2ccc(Br)cc2)NC(=O)[C@H](CCCNC(=N)N)NC1=O [CTX-1226, Arg-cyclo(Cys-D-Ala-Arg-D-Phe(4-Br)-Arg-D-Trp-Cys)]	–	–	71	29	–
CC(=O)N[C@@H](CCCNC(=N)N)C(=O)N[C@H]1CSSC[C@@H](C(N)=O)NC(=O)[C@@H](Cc2c[nH]c3ccccc23)NC(=O)[C@H](CCCNC(=N)N)NC(=O)[C@H]2Cc3ccccc3CN2C(=O)[C@H](CCCNC(=N)N)NC(=O)[C@@H](C)NC1=O [CTX-1273, Arg-cyclo(Cys-D-Ala-Arg-D-Tic-Arg-D-Trp-Cys)] (Ac-RC[dA]R[dTic]R[dW]C-NH2; disulfide 2-8)	0.05	0.64	32	3.7	–
CC(=O)N[C@@H](CCCNC(=N)N)C(=O)N[C@H]1CSSC[C@@H](C(N)=O)NC(=O)[C@@H]2Cc3ccccc3CN2C(=O)[C@H](CCCNC(=N)N)NC(=O)[C@@H](Cc2ccc(Br)cc2)NC(=O)[C@H](CCCNC(=N)N)NC(=O)[C@@H](C)NC1=O [CTX-1259, Arg-cyclo(Cys-D-Ala-Arg-D-Phe(4-Br)-Arg-Tic-Cys)] (Ac-RC[dA]R[dPhe(4-Br)]R[Tic]C-NH2; disulfide 2-8 (inferred))	0.01	0.12	70	27	–
CC(=O)N[C@@H](CCCNC(=N)N)C(=O)N[C@H]1CSSC[C@@H](C(N)=O)NC(=O)[C@@H](Cc2c[nH]c3ccccc23)NC(=O)[C@H](CCCNC(=N)N)NC(=O)[C@@H](Cc2ccc(-c3ccccc3)cc2)NC(=O)[C@H](CCCNC(=N)N)NC(=O)[C@@H](C)NC1=O [CTX-1243, Arg-cyclo(Cys-D-Ala-Arg-D-Bip-Arg-D-Trp-Cys)] (Ac-RC[dA]R[dBip]R[dW]C-NH2; disulfide 2-8 (inferred))	0.21	0.38	32	7.7	–
CCCC[C@H](NC(=O)[C@H](CCCNC(=N)N)NC(C)=O)C(=O)N[C@H]1CSSC[C@@H](C(N)=O)NC(=O)[C@@H](Cc2c[nH]c3ccccc23)NC(=O)[C@H](CCCNC(=N)N)NC(=O)[C@@H](Cc2ccc(Br)cc2)NC(=O)[C@H](CCCNC(=N)N)NC1=O [CTX-1232, Arg-Nle-cyclo(Cys-Arg-D-Phe(4-Br)-Arg-D-Trp-Cys)] (Ac-R[Nle]CR[dPhe(4-Br)]R[dW]C-NH2; disulfide 3-8 (inferred))	0.39	2.44	–	–	MC4R cAMP % max activation (human MC4R; hMC4R stable cell line): (46%); EC50 (human MC4R; hMC4R stable cell line): 2.4 nM; MC3R cAMP % max activation (human MC3R; hMC3R stable cell line): (41%)
CC(=O)N[C@@H](CCCNC(=N)N)C(=O)N[C@H]1CSSC[C@@H](C(N)=O)NC(=O)[C@@H](Cc2c[nH]c3ccccc23)NC(=O)[C@H](CCCNC(=N)N)NC(=O)[C@@H](Cc2ccc(O)cc2)NC(=O)[C@H](CCCNC(=N)N)NC(=O)[C@@H](C)NC1=O [CTX-1237, Arg-cyclo(Cys-D-Ala-Arg-D-Tyr-Arg-D-Trp-Cys)] (Ac-RC[dA]R[dY]R[dW]C-NH2; disulfide 2-8 (inferred))	0.24	0.08	61	19	–
CC(=O)N[C@@H](CCCNC(=N)N)C(=O)N[C@H]1CSSC[C@@H](C(N)=O)NC(=O)[C@@H](Cc2ccccc2)NC(=O)[C@H](CCCNC(=N)N)NC(=O)[C@@H](Cc2ccc(Br)cc2)NC(=O)[C@H](CCCNC(=N)N)NC(=O)[C@@H](C)NC1=O [CTX-1255, Arg-cyclo(Cys-D-Ala-Arg-D-Phe(4-Br)-Arg-D-Phe-Cys)] (Ac-RC[dA]R[dPhe(4-Br)]R[dF]C-NH2; disulfide 2-8 (inferred))	0.05	0.24	60	28	–
CC(=O)N[C@@H](CCCNC(=N)N)C(=O)N[C@H]1CSSC[C@@H](C(N)=O)NC(=O)[C@@H](Cc2c[nH]c3ccccc23)NC(=O)[C@H](CCCNC(=N)N)N(C)C(=O)[C@@H](Cc2ccc(Br)cc2)NC(=O)[C@H](CCCNC(=N)N)NC(=O)[C@@H](C)NC1=O [CTX-1251, Arg-cyclo(Cys-D-Ala-Arg-D-Phe(4-Br)-NMe-Arg-D-Trp-Cys)] (Ac-RC[dA]R[dPhe(4-Br)][NMeR][dW]C-NH2; disulfide 2-8)	0.11	3.73	31	30	–
CCCC[C@H](NC(=O)[C@H](CCCNC(=N)N)NC(C)=O)C(=O)N[C@H]1CSSC[C@@H](C(N)=O)NC(=O)[C@H](Cc2c[nH]c3ccccc23)NC(=O)[C@H](CCCNC(=N)N)NC(=O)[C@@H](Cc2ccccc2)NC(=O)[C@H](CCCNC(N)=O)NC1=O [CTX-1607, Arg-Nle-cyclo(Cys-Cit-D-Phe-Arg-Trp-Cys)] (Ac-R[Nle]C[Cit][dF]RWC-NH2; disulfide 3-8 (inferred))	–	–	–	–	Emax (human MC3R; % maximal activation): 47%
CCCC[C@H](NC(=O)[C@H](CCCNC(=N)N)NC(C)=O)C(=O)N[C@H]1CSSC[C@@H](C(N)=O)NC(=O)[C@H](Cc2ccccc2)NC(=O)[C@H](CCCNC(=N)N)NC(=O)[C@@H](Cc2ccccc2)NC(=O)[C@H](Cc2c[nH]cn2)NC1=O [CTX-1625, Arg-Nle-cyclo(Cys-His-D-Phe-Arg-Phe-Cys)] (Ac-R[Nle]CH[dF]RFC-NH2; disulfide 3-8)	–	–	–	–	Emax (human MC4R; % maximal activation): 101%
CC(=O)N[C@@H](CCCNC(=N)N)C(=O)N[C@H]1CSSC[C@@H](C(N)=O)NC(=O)[C@@H](Cc2c[nH]c3ccccc23)NC(=O)[C@H](CCCNC(=N)N)NC(=O)[C@@H](Cc2ccccc2)NC(=O)[C@H](CCCNC(N)=O)NC(=O)[C@H](C)NC1=O [CTX-1288, Arg-cyclo(Cys-Ala-Cit-D-Phe-Arg-D-Trp-Cys)] (Ac-RCA[Cit][dF]R[dW]C-NH2; disulfide 2-8)	–	–	–	–	Emax (human MC4R; % maximal activation): 87%
CCCC[C@H](NC(=O)[C@H](CCCNC(=N)N)NC(C)=O)C(=O)N[C@H]1CSSC[C@@H](C(N)=O)NC(=O)[C@H](Cc2c[nH]c3ccccc23)NC(=O)[C@H](CCCNC(=N)N)NC(=O)[C@@H](Cc2ccccc2)NC(=O)[C@H](CCCCNC(N)=O)NC1=O [CTX-1618, Arg-Nle-cyclo(Cys-homo-Cit-D-Phe-Arg-Trp-Cys)] (Ac-R[Nle]C[hCit][dF]RWC-NH2; disulfide 3-8 (inferred))	–	–	–	–	Emax (human MC4R; % maximal activation): 94%; EC50 (human MC4R; [1]): 1.8 nM
CC(=O)N[C@@H](CCCNC(=N)N)C(=O)N[C@H]1CSSC[C@@H](C(N)=O)NC(=O)[C@H](Cc2c[nH]c3ccccc23)NC(=O)[C@H](CCCNC(=N)N)NC(=O)[C@@H](Cc2ccccc2)NC(=O)[C@H](CCCNC(=N)N)NC(=O)CNC1=O [CTX-1293, Arg-cyclo(Cys-Gly-Arg-D-Phe-Arg-Trp-Cys)] (Ac-RCGR[dF]RWC-NH2; disulfide 2-8)	–	–	–	–	Emax (human MC4R; % maximal activation): 87%; EC50 (human MC4R; [1]): 0.25 nM
